Assay results reported in patent US9314029B2, “Control and repellency of mosquitoes” (BEDOUKIAN RESEARCH, INC., priority 2012, dated 2016).

Experiments:
Assay type in all cases: in vivo
Aedes aegypti [1] = assay: Repellency on treated membrane-covered blood-filled wells; conditions: 20 min; for Avg % Repellency: relative to control
Protocol: (§1) The invention is illustrated by, but not limited to, the following examples. • Five replicates of 250 adult female mosquitoes each were placed in clear plastic cages with access to five warmed, blood-filled, membrane-covered wells. The mosquitoes were Aedes aegypti unless otherwise noted. Membranes were treated with repellent. Five replicates were tested. Each replicate used a fresh batch of mosquitoes, blood and treated membranes. The number of mosquitoes probing each well was recorded at two minute intervals for 20 minutes. The total numbers of probes on each well were tallied at the end of the observation period and the average percentage repellency relative to the control was calculated for each formulation.

Aedes aegypti [2] = assay: Human forearm-in-cage test, time to first confirmed bite; conditions: max 8 hours
Protocol: (§2) In addition, human testing was performed to determine the efficacy of compounds from structure (I). Mosquito species used are described in the tables below. Each test subject was exposed to 2 products each test day. The application rate was between 0.65 ml and 1 ml/250 cm^2 for all repellents. The actual amount of repellent used was based upon the amount that provides thorough coverage of the 250 cm^2 treatment area. A repellent was applied using either a micropipette or a syringe minus the needle. The repellents were then evenly spread on the treatment area with a gloved finger. Each test subject's forearms were allowed to air dry for approximately 30 minutes prior to the first exposure. The study coordinator or technician assisted the test subjects in inserting their arms into the test cages containing 200 mosquitoes, taking care not to rub them on the cloth sleeve, to confirm that the insects were biting. If fewer than 10 mosquitoes land on the untreated arm in 60 seconds (all would normally bite), fresh mosquitoes will be added. Typically, the ten (10) landings took place within 10-30 seconds. Both treated arms were inserted into a cage; there were two subjects (4 arms) per cage. The test subjects exposed their treated forearms to the mosquitoes in the test cages for 5 minutes. The subjects then remove their arms from the cages with assistance from the study coordinator or a technician. Exposures of each arm were repeated every 30 minutes until the repellent on that arm was determined to be no longer effective (‘breakdown’) or until 8 hours have elapsed, whichever occurred first. Breakdown occurs when the first confirmed bite is noted. A confirmed bite occurs when a bite is followed by a second bite in the same exposure period or in the next succeeding exposure period. The second bite becomes the confirming bite and the breakdown time is taken as the time of the first bite. The average of two repetitions is given.

Culex quinquefasciatus [3] = assay: Repellency on treated membrane-covered blood-filled wells; conditions: 7% in isopropanol, 20 min; for Avg % Repellency: relative to control
Protocol: as §1

Aedes aegypti [4] = assay: Toxicity to mosquitoes of treated surface (aluminum foil), 5 min exposure; conditions: 2.5% in ethanol, dried on foil
Protocol: A test was designed to determine if two test samples at 2 concentrations applied to a surface are toxic to mosquitoes. Aluminum foil squares, […] were treated with one of the test samples and after drying were placed on top of large Petri dishes, 6″ in diameter. Inverted polystyrene cups, 3.5″ in diameter and 3″ high, each with a circular hole drilled through the bottom, and the sides and top painted with Fluon, were used as the treatment containers. They were placed on top of the Petri dishes and secured with rubber bands. Mosquitoes were aspirated and gently blown through the drilled hole into the arena. A plastic disc was then placed over the hole. Five replicates of ten female Aedes aegypti were used for the test sample treatment and an additional 5 replicates of 10 mosquitoes were used for solvent control. Mosquitoes were constantly exposed to the dried test material for 5 minutes, after which time they were transferred into clean containers, where they were provided a sucrose solution for nourishment. The formal observations for knockdown were made at 1 and 4 hours. At 24 hours the numbers of live, moribund and dead mosquitoes were counted.

Aedes aegypti [5] = assay: Human forearm-in-cage test, time to first confirmed bite; conditions: without the use of polymers or other inert ingredients; species not stated
Culex quinquefasciatus [6] = assay: as above; conditions: 10%, max 8 hours
Protocol: as §2

[7] = tested on: Anopheles quadrimaculatus; assay: as above; conditions: 10%, max 8 hours
Protocol: as §2

CCCCCCC1CC(=O)C=C(C)C1 (stereo not shown) [3-methyl-5-hexyl-2-cyclohexenone]
Avg # Probes (Aedes aegypti [1]; 5% in isopropanol): 0 | Avg % Repellency (Aedes aegypti [1]; 5% in isopropanol): 100%

CCCCCC1C(O)CCC1CC(=O)OC (stereo not shown) [Methyl Dihydrojasmolate]
Avg # Probes (Aedes aegypti [1]; 4% in isopropanol): 0.6 | Avg % Repellency (Aedes aegypti [1]; 4% in isopropanol): 98.8% | Avg # Probes (Aedes aegypti [1]; 7% in isopropanol): 0 | Avg % Repellency (Aedes aegypti [1]; 7% in isopropanol): 100%

CCCCCC1C(O)CCC1CC(=O)OCC (stereo not shown) [Ethyl Dihydrojasmolate]
Avg # Probes (Aedes aegypti [1]; 7% in isopropanol): 0 | Avg % Repellency (Aedes aegypti [1]; 7% in isopropanol): 100%

CCCCCC1C(=O)CCC1CC(C)=O (stereo not shown) [amyl cyclopentanone propanone]
Avg # Probes (Aedes aegypti [1]; 7% in isopropanol): 0 | Avg % Repellency (Aedes aegypti [1]; 7% in isopropanol): 100%

CCCCCCOC(=O)CC1CCC(=O)C1CCCCC (stereo not shown) [Hexyl Dihydrojamonate]
Avg # Probes (Aedes aegypti [1]; 7% in isopropanol): 30.4 | Avg % Repellency (Aedes aegypti [1]; 7% in isopropanol): 66.1%

CCCCCC1C(=O)CCC1CC(=O)OCCC (stereo not drawn) [Propyl Dihydrojasmonate - low epi, Propyl Dihydrojasmonate]
Avg # Probes (Aedes aegypti [1]; 2.5% in isopropanol): 6 | Avg % Repellency (Aedes aegypti [1]; 2.5% in isopropanol): 85%

CCCCCC1CCC(=O)O1 (stereo not shown) [gamma-nonalactone]
Avg # Probes (Aedes aegypti [1]; 7% in isopropanol): 20.4 | Avg % Repellency (Aedes aegypti [1]; 7% in isopropanol): 77.1%

CCCCCCC1CC(C)=CC(O)C1 (stereo not shown) [3-methyl-5-hexyl-2-cyclohexenol]
Avg # Probes (Aedes aegypti [1]; 5% in isopropanol): 1 | Avg % Repellency (Aedes aegypti [1]; 5% in isopropanol): 91%

CCN(CC)C(=O)c1cccc(C)c1 [DEET ®, N,N-Diethyl-m-toluamide, reference compound]
Avg # Probes (Aedes aegypti [1]; 4% in isopropanol): 8.4 | Avg % Repellency (Aedes aegypti [1]; 4% in isopropanol): 90.8% | Avg # Probes (Aedes aegypti [1]; 10% in isopropanol): 0.8 | Avg % Repellency (Aedes aegypti [1]; 10% in isopropanol): 98%

CC/C(C)=C/CC/C(C)=C/CC1CCCC1=O (stereo not shown) [methyl apritone]
100% bite protection time (Aedes aegypti [2]; 10% in isopropanol): <0.5 hr ^ | Avg # Probes (Culex quinquefasciatus [3]): 0 | Avg % Repellency (Culex quinquefasciatus [3]): 100% | Avg # Probes (Aedes aegypti [1]; 7% in isopropanol): 7.6 | Avg % Repellency (Aedes aegypti [1]; 7% in isopropanol): 90.4% | Avg # Probes (Aedes aegypti [1]; 10% in isopropanol): 3.6 | Avg % Repellency (Aedes aegypti [1]; 10% in isopropanol): 93.9%

CCCCCCCCCCC1CCC(=O)O1 (stereo not shown) [gamma-tetradecalactone]
100% bite protection time (Aedes aegypti [2]; 15% in isopropanol): 0.5 hr^ | Avg # Probes (Aedes aegypti [1]; 7% in isopropanol): 0.8 | Avg % Repellency (Aedes aegypti [1]; 7% in isopropanol): 98.9%

CCCCC1CC(=O)C=C(C)C1 (stereo not shown) [3-methyl-5-butyl-2-cyclohexenone]
1 hr knockdown (Aedes aegypti [4]): 100% | 4 hr knockdown (Aedes aegypti [4]): 100% | 24 hr mortality (Aedes aegypti [4]): 88% | Avg # Probes (Aedes aegypti [1]; 5% in isopropanol): 1 | Avg % Repellency (Aedes aegypti [1]; 5% in isopropanol): 97%

CC(C)CCCC(C)CCC1CCCC1=O (stereo not shown) [tetrahydroapritone]
Avg # Probes (Aedes aegypti [1]; 7% in isopropanol): 3.8 | Avg % Repellency (Aedes aegypti [1]; 7% in isopropanol): 93.7%

CCC(C)=CCCC(C)=CCC1CCCC1O (stereo not shown) [methyl apritol]
Avg # Probes (Aedes aegypti [1]; 7% in isopropanol): 6.6 | Avg % Repellency (Aedes aegypti [1]; 7% in isopropanol): 91.9% | Avg # Probes (Aedes aegypti [1]; 10% in isopropanol): 6.8 | Avg % Repellency (Aedes aegypti [1]; 10% in isopropanol): 89.2%

CCCCCCCCCC1CCCC(=O)O1 (stereo not shown) [delta-tetradecalactone]
Avg # Probes (Aedes aegypti [1]; 7% in isopropanol): 1.6 | Avg % Repellency (Aedes aegypti [1]; 7% in isopropanol): 97.3%

CCCCCC1C(=O)CCC1CC(=O)OCCC (stereo not shown) [Propyl Dihydrojasmonate]
prolonged repellency (Aedes aegypti [5]): ≥ 8 h | 100% bite protection time (Aedes aegypti [2]; 15% in isopropanol): <0.5 hr ^ | 100% bite protection time (Aedes aegypti [2]; 30% in isopropanol): 1 h | 100% bite protection time (Aedes aegypti [2]; 30% in squalane): 2.75 h | Avg # Probes (Aedes aegypti [1]; 5% in isopropanol): 4 | Avg % Repellency (Aedes aegypti [1]; 5% in isopropanol): 97% | Avg # Probes (Aedes aegypti [1]; 5% in squalane): 0 | Avg % Repellency (Aedes aegypti [1]; 5% in squalane): 99% | Avg # Probes (Aedes aegypti [1]; 7% in isopropanol): 2.6 | Avg % Repellency (Aedes aegypti [1]; 7% in isopropanol): 95.6%

CCCCCCCCCC1(C)CCC(=O)O1 (stereo not shown) [gamma Methyl Tridecalactone]
Avg # Probes (Aedes aegypti [1]; 5% in isopropanol): 4 | Avg % Repellency (Aedes aegypti [1]; 5% in isopropanol): 96%

CCC(C)CCCC(C)CCC1CCCC1=O (stereo not shown) [tetrahydromethyl apritone]
Avg # Probes (Aedes aegypti [1]; 7% in isopropanol): 11 | Avg % Repellency (Aedes aegypti [1]; 7% in isopropanol): 74.9%

CCCCCCCCC1CCC(=O)O1 (stereo not shown) [gamma-dodecalactone]
100% bite protection time (Aedes aegypti [2]; 10% in isopropanol): 1.25 h | Avg # Probes (Culex quinquefasciatus [3]): 0 | Avg % Repellency (Culex quinquefasciatus [3]): 100% | Avg # Probes (Aedes aegypti [1]; 7% in isopropanol): 0 | Avg % Repellency (Aedes aegypti [1]; 7% in isopropanol): 100%

CCCCCC1C(=O)CCC1CC(=O)OCC=C(C)C (stereo not shown) [Prenyl Dihydrojasmonate]
Avg # Probes (Aedes aegypti [1]; 7% in isopropanol): 2.8 | Avg % Repellency (Aedes aegypti [1]; 7% in isopropanol): 92.6%

CC1CCC(C(C)(C)O)C(O)C1 (stereo not shown) [PMD, p-Menthane-3,8-diol, reference compound]
100% bite protection time (Culex quinquefasciatus [6]): 4.25 h | 100% bite protection time [7]: 6.75 h | 100% bite protection time (Aedes aegypti [2]; 5% in isopropanol): 2.75 h | 100% bite protection time (Aedes aegypti [2]; 10% in isopropanol): 6.25 h | Avg # Probes (Aedes aegypti [1]; 7% in isopropanol): 9 | Avg % Repellency (Aedes aegypti [1]; 7% in isopropanol): 79.2%

CCCCCC1C(=O)CCC1CC(=O)N(CC)CC (stereo not shown) [methyl dihydrojasmonate amide]
Avg # Probes (Aedes aegypti [1]; 2.5% in isopropanol): 18.6 | Avg % Repellency (Aedes aegypti [1]; 2.5% in isopropanol): 55% | Avg # Probes (Aedes aegypti [1]; 5% in isopropanol): 6.8 | Avg % Repellency (Aedes aegypti [1]; 5% in isopropanol): 90.1%

dihydrojasmolactone
Avg # Probes (Aedes aegypti [1]; 7% in isopropanol): 0 | Avg % Repellency (Aedes aegypti [1]; 7% in isopropanol): 100%

CCCCCCCCC1(C)CCC(=O)O1 (stereo not shown) [gamma Methyl Dodecalactone]
Avg # Probes (Aedes aegypti [1]; 5% in isopropanol): 1 | Avg % Repellency (Aedes aegypti [1]; 5% in isopropanol): 98%

CCCCCC1C(=O)CCC1CC(=O)OCCC (stereo not drawn) [Propyl Dihydrojasmonate - high epi, Propyl Dihydrojasmonate]
Avg # Probes (Aedes aegypti [1]; 2.5% in isopropanol): 2 | Avg % Repellency (Aedes aegypti [1]; 2.5% in isopropanol): 95%

CCCCCCCC1CC(=O)C=C(C)C1 (stereo not shown) [3-methyl-5-heptyl-2-cyclohexenone]
1 hr knockdown (Aedes aegypti [4]): 100% | 4 hr knockdown (Aedes aegypti [4]): 100% | 24 hr mortality (Aedes aegypti [4]): 98% | Avg # Probes (Aedes aegypti [1]; 5% in isopropanol): 0 | Avg % Repellency (Aedes aegypti [1]; 5% in isopropanol): 99%

CCCCCC1C(O)CCC1CCO (stereo not shown) [dihydrojasmindiol]
Avg # Probes (Aedes aegypti [1]; 7% in isopropanol): 7.2 | Avg % Repellency (Aedes aegypti [1]; 7% in isopropanol): 84.3%

CCCCCCCCCC1CCC(=O)O1 (stereo not shown) [gamma-tridecalactone]
100% bite protection time (Aedes aegypti [2]; 30% in isopropanol): 1 h | Avg # Probes (Aedes aegypti [1]; 5% in isopropanol): 3.1 | Avg % Repellency (Aedes aegypti [1]; 5% in isopropanol): 94.4% | Avg # Probes (Aedes aegypti [1]; 7% in isopropanol): 1.8 | Avg % Repellency (Aedes aegypti [1]; 7% in isopropanol): 97.5%

farnesyl cyclopentanol
Avg # Probes (Aedes aegypti [1]; 7% in isopropanol): 16.2 | Avg % Repellency (Aedes aegypti [1]; 7% in isopropanol): 67.8%

CCCCCCCC1CCCC(=O)O1 (stereo not shown) [delta-dodecalactone]
Avg # Probes (Aedes aegypti [1]; 7% in isopropanol): 0 | Avg % Repellency (Aedes aegypti [1]; 7% in isopropanol): 100%

CCCCCC1C(O)CCC1CC(=O)OCC=C(C)C (stereo not shown) [Prenyl Dihydrojasmolate]
Avg # Probes (Aedes aegypti [1]; 7% in isopropanol): 3.2 | Avg % Repellency (Aedes aegypti [1]; 7% in isopropanol): 92.2%
